Patent US5272150A, “Hydroxyalkylfuranyl derivatives” (Janssen Pharmaceutica N.V., priority 1992, dated 1993)

Test system: compound 48/80-induced lethality in rats
Assay: Protection of rats from compound 48/80-induced lethality
Format: in vivo
Settings: Rattus norvegicus, subcutaneous administration (sc)
From the text: Int. Pharmacodyn. Ther. 251, 39-51 (1981).
The term (sc) signifies subcutaneous administration.

Structure (SMILES)	ED50
OCc1ccc(Cn2c(CC3CCN(CCc4ccccn4)CC3)nc3cccnc32)o1 [Co. No. 2.35, 5-[[2-[[1-[2-(2-pyridinyl)ethyl]-4-piperidinyl]methyl]-3H-imidazo[4,5-b]-pyridin-3-yl]methyl]-2-furanmethanol (E)-2-butenedioate(2:3)]	0.02 mg/kg
O=[N+]([O-])c1cnccc1NCCN1CCCC(Nc2nc3ccccc3n2Cc2ccc(CO)o2)CC1 (stereo not drawn) [Co. No. 4.14, 5-[[2-[[hexahydro-1-[2-[(3-nitro-4-pyridinyl)amino]ethyl]-1H-azepin-4-yl]amino]-1H-benzimidazol-1-yl]methyl]-2-furanmethanol hemihydrate]	0.04 mg/kg
Cc1nc2sccn2c(=O)c1CCN1CCC(Cc2nc3ccccc3n2Cc2ccc(CO)o2)CC1 [1.08]	0.01 mg/kg
Cc1nc2ccccn2c(=O)c1CCN1CCC(Cc2nc3ccccc3n2Cc2ccc(CO)o2)CC1 [1.09]	0.02 mg/kg
O=c1ccc(NCCN2CCC(Cc3nc4ccccc4n3Cc3ccc(CO)o3)CC2)n[nH]1 [Co. No. 1.25, 6-[[2-[4-[[1-[[5-(hydroxymethyl)-2-furanyl]methyl]-1H-benzimidazol-2-yl]methyl]-1-piperidinyl]ethyl]amino]-3(2H)-pyridazinone ethanedioate (2:5)]	0.01 mg/kg
CN1CCC(Nc2nc3cncnc3n2Cc2ccc(CO)o2)CC1 [5.04]	0.02 mg/kg
COc1ccc(CCN2CCC(Cc3nc4ccccc4n3Cc3ccc(CO)o3)CC2)cc1 [1.11]	0.04 mg/kg
OCc1ccc(Cn2c(CC3CCN(CCNc4ncccn4)CC3)nc3ccccc32)o1 [1.23]	0.02 mg/kg
Cc1nc2n(c(=O)c1CCN1CCC(Nc3nc4ccccc4n3Cc3ccc(CO)o3)CC1)CCCS2 [Co. No. 3.31]	0.04 mg/kg
CN1CCC(Cc2nc3ccccc3n2Cc2ccc(CO)o2)CC1 [Co. No. 1.17, 5-[[2-[(1-methyl-4-piperidinyl)methyl]-1H-benzimidazol-1-yl]methyl]-2-furanmethanol]	0.04 mg/kg
N#CCN1CCC(Nc2nc3ccccc3n2Cc2ccc(CO)o2)CC1 [Co. No. 3.22, 4-[[1-[[5-(hydroxymethyl)-2-furanyl]-methyl]-1H-benzimidazol-2-yl]amino]-1-piperidineacetonitrile]	0.04 mg/kg
Cc1nc2n(c(=O)c1CCN1CCC(Nc3nc4ccccc4n3Cc3ccc(CO)o3)CC1)CCS2 [3.15]	0.04 mg/kg
CN1CCC(Nc2nc3ccccc3n2Cc2ccc(CO)o2)CC1 [3.03]	0.02 mg/kg
CC(C)NC(=O)CCN1CCC(Cc2nc3ccccc3n2Cc2ccc(CO)o2)CC1 [1.12]	0.01 mg/kg
CCn1nnn(CCN2CCC(Nc3nc4ccccc4n3Cc3ccc(CO)o3)CC2)c1=O [3.13]	0.04 mg/kg
Cc1nc2ccccn2c(=O)c1CCN1CCC(Nc2nc3ccccc3n2Cc2ccc(CO)o2)CC1 [3.17]	0.04 mg/kg
Cc1cc2nc(C)c(CCN3CCC(Nc4nc5cccnc5n4Cc4ccc(CO)o4)CC3)c(=O)n2o1 [2.32]	0.02 mg/kg
O=c1[nH]c2ccccc2n1CCN1CCC(Nc2nc3ccccc3n2Cc2ccc(CO)o2)CC1 [3.19]	0.02 mg/kg
O=C(O)C(=O)O.O=C(O)C(=O)O.O=C(O)C(=O)O.OCc1ccc(Cn2c(CC3CCN(CCNc4cccnn4)CC3)nc3ccccc32)o1 [Co. No. 1.24, 5-[[2-[[1-[2-(3-pyridazinylamino)ethyl]-4-piperidinyl]methyl]-1H-benzimidazol-1-yl]methyl]-2-furanmethanol ethanedioate (1:3)]	0.02 mg/kg
Cc1nc2ccccn2c(=O)c1CCN1CCC(Nc2nc3cccnc3n2Cc2ccc(CO)o2)CC1 [2.10]	0.04 mg/kg
Cc1nc2sccn2c(=O)c1CCN1CCC(Nc2nc3cncnc3n2Cc2ccc(CO)o2)CC1 [5.03]	0.04 mg/kg
CCn1nnn(CCN2CCC(Cc3nc4ccccc4n3Cc3ccc(CO)o3)CC2)c1=O [1.07]	0.04 mg/kg
OCc1ccc(Cn2c(CC3CCN(CCNc4cnccn4)CC3)nc3ccccc32)o1 [1.22]	0.04 mg/kg
Cc1nc2n(c(=O)c1CCN1CCC(Cc3nc4cccnc4n3Cc3ccc(CO)o3)CC1)CCCS2 [2.33]	0.04 mg/kg
Cn1cccc1C(=O)NCCN1CCC(Cc2nc3ccccc3n2Cc2ccc(CO)o2)CC1 [1.15]	0.04 mg/kg
Cc1nc2sccn2c(=O)c1CCN1CCC(Nc2nc3cccnc3n2Cc2ccc(CO)o2)CC1 [2.09]	0.01 mg/kg
CC(C)NC(=O)CCN1CCC(Nc2nc3ccccc3n2Cc2ccc(CO)o2)CC1 [Co. No. 3.12]	0.04 mg/kg
Cc1nc2n(c(=O)c1CCN1CCC(Cc3nc4ccccc4n3Cc3ccc(CO)o3)CC1)CCS2 [1.10]	0.01 mg/kg
O=[N+]([O-])c1cnccc1NCCN1CCC(Nc2nc3ccccc3n2Cc2ccc(CO)o2)CC1 [Co. No. 3.26, 5-[[2-[[1-[2-[(3-nitro-4-pyridinyl)amino]-ethyl]-4-piperidinyl]amino]-1H-benzimidazol-1-yl]methyl]-2-furanmethanol]	0.04 mg/kg
OCc1ccc(Cn2c(NC3CCNCC3)nc3ccccc32)o1 [Co. No. 3.11, 5-[[2-(4-piperidinylamino)-1H-benzimidazol-1-yl]methyl]-2-furanamethanol]	0.04 mg/kg
